# Results published in patent US10882856B2 (BeiGene, Ltd., priority 2017, dated 2021).
# Where a name gives a salt, the structure may show the parent alone.
# What was measured:
# IDO1 [1] = molecular target: T1, IDO1 (Homo sapiens, UniProt P14902); assay: Hela cell-based IDO1 assay; settings: Hela cells
# In short: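 Kynurenine was measured at 480 nm in trichloroacetic acid-deproteinised supernatant after adding 2% 4-(dimethylamino)benzaldehyde. This supernatant came from HeLa cells seeded at 8000 per well in 96-well plates in phenol red-free DMEM with 10% FBS and, from 4 hours after seeding, exposed for 48 hours at 37 °C, 5% CO2 to DMSO-diluted compound dilutions, IFN-γ (final 100 ng/mL) and 0.4 mM L-Trp. The resulting data were fitted with a four-parameter logistic model in XLfit. Potency was taken from those fits.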
# IDO1 [2] = molecular target: T1, IDO1; assay: IDO1 enzymatic assay; type: biochemical; parameters: His tag (N); made in house; host or cells: E. coli; settings: read-out: Enzyme IC50 IDO1
# In short: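 Recombinant IDO1 carrying an N-terminal His tag and purified from E. coli was used at 50 nM with test compound, 1.3 mM D-tryptophan, 5 mM L-ascorbic acid, methylene blue and 0.4 mg/mL catalase in 50 mM potassium phosphate pH 7.5 containing 0.1% BSA. This mixture was incubated at 24 °C for 1.5 hours, after which N'-formylkynurenine formation was followed continuously at 321 nm for 1 hour and activity was taken as the slope. IC50 was derived from the enzyme activity remaining as compound concentration increased.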
# [3] = molecular target: T2, cellular TDO2 in HEK293-TDO2 cells (Homo sapiens, UniProt P48775); assay: 293-TDO2 cell-based assay (Kyn colorimetric); settings: 48 hours of incubation
# T2 construct: expressed in transfected cells; host or cells: HEK293 (ATCC), stably transfected
# In short: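 Kyn formed from L-Trp was read colorimetrically at 480 nm (TCA deproteinisation, then 2% 4-(dimethylamino)benzaldehyde). Compounds were added to 293-TDO2 cells 4 h post-seeding and left 48 h at 37° C. A four-parameter logistic model gave IC50 values.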
# T2 sequence (P48775 whole entry): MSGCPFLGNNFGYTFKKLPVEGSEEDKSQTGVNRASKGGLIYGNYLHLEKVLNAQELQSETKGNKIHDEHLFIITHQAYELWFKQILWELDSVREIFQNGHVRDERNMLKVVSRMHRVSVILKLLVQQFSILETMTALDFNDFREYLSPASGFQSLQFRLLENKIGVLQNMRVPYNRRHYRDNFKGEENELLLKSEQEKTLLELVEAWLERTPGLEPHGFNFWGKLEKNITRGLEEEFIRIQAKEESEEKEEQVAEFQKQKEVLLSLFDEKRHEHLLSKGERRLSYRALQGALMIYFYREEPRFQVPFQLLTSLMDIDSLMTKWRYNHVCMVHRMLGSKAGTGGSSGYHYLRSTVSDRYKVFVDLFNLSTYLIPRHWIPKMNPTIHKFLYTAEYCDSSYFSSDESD
# T1 sequence (P14902 whole entry): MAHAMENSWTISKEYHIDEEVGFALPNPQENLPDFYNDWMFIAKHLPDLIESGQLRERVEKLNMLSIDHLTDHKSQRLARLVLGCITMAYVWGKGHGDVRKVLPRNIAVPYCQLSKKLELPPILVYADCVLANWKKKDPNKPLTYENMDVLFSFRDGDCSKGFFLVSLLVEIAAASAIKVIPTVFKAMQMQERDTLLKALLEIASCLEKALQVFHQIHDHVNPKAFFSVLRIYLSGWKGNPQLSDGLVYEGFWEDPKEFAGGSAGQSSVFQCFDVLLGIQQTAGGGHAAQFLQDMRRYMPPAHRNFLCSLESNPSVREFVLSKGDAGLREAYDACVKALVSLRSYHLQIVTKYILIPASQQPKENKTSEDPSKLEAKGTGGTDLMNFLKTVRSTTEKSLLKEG
Structure (SMILES),EC50 (IDO1 [1]),IC50 (IDO1 [2]),EC50 [3]
"COc1ccccc1[C@H]1CC[C@H]([C@@H](O)c2c(C3CC3)ccn3cncc23)CC1 (single isomer, unassigned) [Example C113b]",> 10000 nM,8200 nM,> 10000 nM
"O[C@@H](c1c(C2CC2)ccc2cncn12)[C@H]1CC[C@H](c2ccc(-c3ccccc3)cc2)CC1 (single isomer, unassigned) [Example D119b]",3530 nM,2200 nM,> 10000 nM
"OC(c1c(C2CC2)ccc2cncn12)C1CCN(c2cccc(Cl)c2)CC1 (stereo not drawn) [Example D173, (1-(3-chlorophenyl)piperidin-4-yl)(6-cyclopropylimidazo[15-a]pyridin-5-yl)methanol]",65 nM,30 nM,> 10000 nM
"O[C@@H](c1c(C2CC2)ccc2cncn12)C1CCN(c2ccc(F)c3ncccc23)CC1 (single isomer, unassigned) [Example D175b]",407 nM,740 nM,> 10000 nM
"OC(c1c(C2CC2)ccc2cncn12)[C@H]1CC[C@H](c2ccc(OC3CCOCC3)cc2)CC1 (single isomer, unassigned) [Example D114b]",3970 nM,2600 nM,> 10000 nM
"O[C@@H](c1c(C2CC2)ccc2cncn12)C1CCN(c2ccc(Cl)c3ncccc23)CC1 (single isomer, unassigned) [Example D178b]",1470 nM,2300 nM,> 10000 nM
"OC(c1c(C2CC2)ccc2cncn12)C1CCC(c2ccc(F)cc2F)CC1 (stereo not drawn) [Example D127, (6-cyclopropylimidazo[1,5-a]pyridin-5-yl)(4-(2,4-difluorophenyl)cyclohexyl)methanol]",170 nM,40 nM,> 10000 nM
"COc1ccc(C2CCC(C(O)c3c(C4CC4)ccc4cncn34)CC2)c2ccccc12 (stereo not drawn) [Example D139, (6-cyclopropylimidazo[1,5-a]pyridin-5-yl)(4-(4-methoxynaphthalen-1-yl)cyclohexyl)methanol]",977 nM,75 nM,> 10000 nM
"OC(c1c(C2CC2)ccn2cncc12)C1CCN(c2ccc(F)cc2)CC1 (single isomer, unassigned) [Example C137b]",> 10000 nM,4100 nM,> 10000 nM
Oc1ccc(N2CCC(C(O)c3c(C4CC4)ccn4cncc34)CC2)cc1 (stereo not drawn) [Example C143],1100 nM,130 nM,> 10000 nM
"OC(c1c(C2CC2)ccc2cncn12)[C@H]1CC[C@H](c2ccc(Cl)cc2F)CC1 (single isomer, unassigned) [Example D131a]",275 nM,32 nM,> 10000 nM
"OC(c1c(C2CC2)ccc2cncn12)C1CCC(c2cccc(Cl)c2)CC1 (stereo not drawn) [Example D116, (4-(3-chlorophenyl)cyclohexyl)(6-cyclopropylimidazo[1,5-a]pyridin-5-yl)methanol]",107 nM,44 nM,> 10000 nM
"O[C@@H](c1c(C2CC2)ccn2cncc12)[C@H]1CC[C@H](c2ccc(C(F)(F)F)nc2)CC1 (single isomer, unassigned) [Example C120b]",> 10000 nM,4800 nM,> 10000 nM
"O[C@H](c1c(C2CC2)ccc2cncn12)C1CCN(c2ccc(F)cc2)CC1 (single isomer, unassigned) [Example D171a]",30 nM,15 nM,> 10000 nM
"N#Cc1ccc([C@H]2CC[C@H]([C@@H](O)c3c(C4CC4)ccc4cncn34)CC2)cc1 (single isomer, unassigned) [Example D110b]",> 10000 nM,> 10000 nM,> 10000 nM
"OC(c1c(C2CC2)ccn2cncc12)C1CCN(c2ccc(F)c3ncccc23)CC1 (single isomer, unassigned) [Example C149b]",2910 nM,2400 nM,> 10000 nM
"O[C@@H](c1c(C2CC2)ccn2cncc12)[C@H]1CC[C@H](c2ccc(C(F)(F)F)cc2)CC1 (single isomer, unassigned) [Example C115b]",9450 nM,> 10000 nM,> 10000 nM
"COc1ccc([C@H]2CC[C@H](C(O)c3c(C4CC4)ccc4cncn34)CC2)cc1Cl (single isomer, unassigned) [Example D148a, hydrochloride]",80 nM,17 nM,> 10000 nM

Structure (SMILES),EC50 (IDO1 [1]),IC50 (IDO1 [2]),EC50 [3]
"OC(c1c(C2CC2)ccc2cncn12)[C@H]1CC[C@H](c2ccc(C(F)(F)F)nc2)CC1 (single isomer, unassigned) [Example D107a]",1260 nM,36 nM,> 10000 nM
"OC(c1c(C2CC2)ccn2cncc12)C1CCN(c2ccc(Cl)c3ncccc23)CC1 (single isomer, unassigned) [Example C154b]",6450 nM,2900 nM,> 10000 nM
"Oc1ccccc1C1CCC(C(O)c2c(C3CC3)ccc3cncn23)CC1 (stereo not drawn) [Example D112, 2-(4-((6-cyclopropylimidazo[1,5-a]pyridin-5-yl)(hydroxy)methyl)cyclohexyl)phenol]",50 nM,43 nM,> 10000 nM
"OC(c1c(C2CC2)ccc2cncn12)C1CCC(c2ccc(Cl)cc2)CC1 (stereo not drawn) [Example D103, (4-(4-chlorophenyl)cyclohexyl)(6-cyclopropylimidazo[1,5-a]pyridin-5-yl)methanol]",163 nM,38 nM,> 10000 nM
"OC(c1c(C2CC2)ccn2cncc12)C1CCC(c2ccc(C(F)(F)F)nc2)CC1 (stereo not drawn) [Example C120, (7-cyclopropylimidazo[1,5-a]pyridin-8-yl)(4-(6-(trifluoromethyl)pyridin-3-yl)cyclohexyl)methanol]",2180 nM,96 nM,> 10000 nM
"O[C@@H](c1c(C2CC2)ccc2cncn12)[C@H]1CC[C@H](c2ccc(F)c(F)c2)CC1 (single isomer, unassigned) [Example D126b]",6520 nM,> 10000 nM,> 10000 nM
"O[C@@H](c1cc(Cl)cc2cncn12)[C@H]1CC[C@H](c2cccc3ccccc32)CC1 (single isomer, unassigned) [Example E103b]",> 10000 nM,1400 nM,> 10000 nM
"COc1ccc(C2CCC(C(O)c3c(C4CC4)ccc4cncn34)CC2)cc1 (stereo not drawn) [Example D102, (6-cyclopropylimidazo[1,5-a]pyridin-5-yl)(4-(4-methoxyphenyl)cyclohexyl)methanol]",74 nM,23 nM,> 10000 nM
"O[C@@H](c1c(C2CC2)ccn2cncc12)[C@H]1CC[C@H](c2ccccc2F)CC1 (single isomer, unassigned) [Example C108b]",> 10000 nM,7300 nM,> 10000 nM
"OC(c1c(C2CC2)ccn2cncc12)C1CCN(C2CC2)CC1 (stereo not drawn) [Example C139, (7-cyclopropylimidazo[1,5-a]pyridin-8-yl)(1-cyclopropylpiperidin-4-yl)methanol]",> 10000 nM,890 nM,> 10000 nM
"O[C@@H](c1c(C2CC2)ccc2cncn12)[C@H]1CC[C@H](c2ccc(Cl)cc2F)CC1 [Example D131b, (R)-((1r,4R)-4-(4-chloro-2-fluorophenyl)cyclohexyl)(6-cyclopropylimidazo[1,5-a]pyridin-5-yl)methanol hydrochloride]",6490 nM,> 10000 nM,> 10000 nM
"COc1ccc(C2CCC(C(O)c3c(C4CC4)ccc4cncn34)CC2)c(Cl)c1 (stereo not drawn) [Example D147, (4-(2-chloro-4-methoxyphenyl)cyclohexyl)(6-cyclopropylimidazo[1,5-a]pyridin-5-yl)methanol]",443 nM,43 nM,> 10000 nM
"OC(c1c(C2CC2)ccc2cncn12)C1CCC(c2cc(F)c(F)cc2F)CC1 (stereo not drawn) [Example D149, (6-cyclopropylimidazo[1,5-a]pyridin-5-yl)(4-(2,4,5-trifluorophenyl)cyclohexyl)methanol]",492 nM,26 nM,> 10000 nM
"OC(c1c(C2CC2)ccc2cncn12)[C@H]1CC[C@H](c2ccc(F)cc2Cl)CC1 (single isomer, unassigned) [Example D130a]",203 nM,30 nM,> 10000 nM
"OC(c1c(C2CC2)ccc2cncn12)C1CCC(c2ccc(F)c3ncccc23)CC1 (stereo not drawn) [Example D163, (6-cyclopropylimidazo[1,5-a]pyridin-5-yl)(4-(8-fluoroquinolin-5-yl)cyclohexyl)methanol]",48 nM,40 nM,> 10000 nM
"OC(c1c(C2CC2)ccn2cncc12)C1CCN(c2ccc(F)c3ncccc23)CC1 (stereo not drawn) [Example C149, (7-cyclopropylimidazo[1,5-a]pyridin-8-yl)(1-(8-fluoroquinolin-5-yl)piperidin-4-yl)methanol]",42 nM,40 nM,> 10000 nM
"COc1ccc(C2CCC(C(O)c3c(C4CC4)ccc4cncn34)CC2)c(F)c1 (stereo not drawn) [Example D146, (6-cyclopropylimidazo[1,5-a]pyridin-5-yl)(4-(2-fluoro-4-methoxyphenyl)cyclohexyl)methanol]",210 nM,28 nM,> 10000 nM
